Measured values reported in patent US20120156333A1, “STABILIZED BETA CRYPTOXANTHIN-CONTAINING WATER AND THE USE THEREOF” (ARKRAY, INC., priority 2010, published 2012).

Columns and labels:
Type in all cases: physicochemical
[1] = β cryptoxanthin stabilizing test, Example 3A (water from Citrus unshiu concentrated liquid with additive L-ascorbic acid, stored at 40° C.); conditions: 0.0015 parts by mass β cryptoxanthin (concentrated liquid) in water
Protocol: (§1) The prepared concentrated liquid derived from Citrus unshiu and water were mixed. Thus, a mixed solution was prepared. The mixing was conducted so that a mass ratio between β cryptoxanthin contained in the concentrated liquid and the mixed water became […] (0.0015 parts by mass of β cryptoxanthin with respect to 100 parts by mass of finally obtained β cryptoxanthin-containing water). Vitamin C (L-ascorbic acid) was added to the mixed solution, which was then mixed by stirring. Thus, β cryptoxanthin-containing waters were prepared. The total amounts of L-ascorbic acid in the respective β cryptoxanthin-containing waters were set to 0.005, 0.01, 0.02, 0.1, and 0.2 parts by mass with respect to 100 parts by mass of entire β cryptoxanthin-containing water by adding vitamin C. 50 g of five types of the β cryptoxanthin-containing waters were filled in the respective brown bottles. Thereafter, the brown bottles were subjected to a heat sterilization treatment under the condition at 90° C. for 30 minutes, which were then stored at 40° C. Sampling was conducted on a storage start date and after two months from the same. The respective amounts of β cryptoxanthin in samples were measured in the same manner as in Example 1A. Then, assuming that the amount of β cryptoxanthin on the storage start date was 100%, residual ratios of β cryptoxanthin were determined.

[2] = Storage stability at 20° C. and 25° C. calculated by Arrhenius equation, Example 4A; conditions: for possible storage period in the stable state: β cryptoxanthin-containing waters of Example 1A, 2A, and 3A, from storage at 40° C. for 2 months
Protocol: With respect to each of the β cryptoxanthin-containing waters prepared in Examples 1A, 2A, and 3A, storage stability at 20° C. and 25° C. was determined.
The storage stability was calculated by the following method with reference to the publication below. Conditions were described in the publication, hereby incorporated herein by reference. • Sumie Yoshioka (1995), “Iyakuhin no Anzensei—yoriyoi Kaihatsu to Hyoka notameno Kiso kara Jissai made—(Drug safety—principles and practices for improving development and evaluation—), Nankodo Co., Ltd.
Specifically, a graph of FIG. 185 on page 95 of the publication was cited. FIG. 1 is an Arrhenius plot of degradation of thiamine hydrochloride in a vitamin complex liquid agent, the Y axis indicates log Kobs (day^−1), and the X axis indicates 1/T (K^1). The stable periods were calculated based on the activation energy for degradation of thiamine hydrochloride in the vitamin complex liquid agent, shown in the graph.
In FIG. 1, the Y axis is indicated by not ln, but log. Therefore log Kobs was converted into ln k.
Then, −Ea/R and ln A were calculated from the ln k and 1/T (K^−1) on the X axis of FIG. 1 based on the Arrhenius equation represented by the formula (1) below.

[3] = β cryptoxanthin stabilizing test, Example 3B (water from concentrated liquid, varied β cryptoxanthin concentration, stored at 45° C.)
Protocol: The prepared concentrated liquid derived from Citrus unshiu and water were mixed. Thus, β cryptoxanthin-containing waters were prepared. In the mixing, concentrations of the β cryptoxanthin were set to predetermined parts by mass with respect to 100 parts by mass of a combination of the water and components contained in the water. The predetermined parts by mass were 0.0007, 0.0015, 0.0025, 0.0053, and 0.0072 parts by mass. Thus, five types of β cryptoxanthin-containing waters each having a different concentration of the β cryptoxanthin were prepared. Each of the β cryptoxanthin-containing waters was sufficiently stirred. Thereafter 90 g of the resultant β cryptoxanthin-containing water was filled in an aluminum pouch, which was then sterilized under the condition at 85° C. for 30 minutes.
Five types of the β cryptoxanthin-containing waters of the example were stored at 45° C. for one month. Sampling was conducted on a storage start date and after one month from the storage start date. The respective amounts of β cryptoxanthin in samples were measured by HPLC in the same manner as in Example 1B. Then, assuming that the amount of β cryptoxanthin on the storage start date was 100%, residual ratios of β cryptoxanthin were determined.

[4] = β cryptoxanthin stabilizing test, Example 2A (water from Citrus unshiu powder with additive L-ascorbic acid, stored at 40° C.); conditions: 0.0022 parts by mass β cryptoxanthin (powder) in water
Protocol: as §1, with “powder” for “concentrated liquid”, “(0.0022” for “(0.0015”

[5] = additive L-ascorbic acid 0.005 parts by mass
[6] = additive L-ascorbic acid 0.01 parts by mass
[7] = additive L-ascorbic acid 0.02 parts by mass
[8] = additive L-ascorbic acid 0.1 parts by mass
[9] = additive L-ascorbic acid 0.2 parts by mass

CC1=C(/C=C/C(C)=C/C=C/C(C)=C/C=C/C=C(C)/C=C/C=C(C)/C=C/C2=C(C)C[C@@H](O)CC2(C)C)C(C)(C)CCC1 [β cryptoxanthin]
Residual ratio of β cryptoxanthin Storage for two months (%) [1, 5]: 64.3% | Residual ratio of β cryptoxanthin Storage for two months (%) [1, 6]: 64.9% | Residual ratio of β cryptoxanthin Storage for two months (%) [1, 7]: 99.1% | Residual ratio of β cryptoxanthin Storage for two months (%) [1, 8]: 100% | Residual ratio of β cryptoxanthin Storage for two months (%) [1, 9]: 37.9% | storage in a stable state at normal temperature ([2]; Example 4A, normal temperature (20° C. to 25° C.)): two years or more | possible storage period in the stable state ([2]; 20° C.): about 34 months | possible storage period in the stable state ([2]; 25° C.): about 16.2 months | Residual ratio of β cryptoxanthin Storage for one month (%) ([3]; β cryptoxanthin 0.0007 parts by mass (concentrated liquid) in water): 42.6% | Residual ratio of β cryptoxanthin Storage for one month (%) ([3]; β cryptoxanthin 0.0015 parts by mass (concentrated liquid) in water): 78.0% | Residual ratio of β cryptoxanthin Storage for one month (%) ([3]; β cryptoxanthin 0.0025 parts by mass (concentrated liquid) in water): 95.8% | Residual ratio of β cryptoxanthin Storage for one month (%) ([3]; β cryptoxanthin 0.0053 parts by mass (concentrated liquid) in water): 96.6% | Residual ratio of β cryptoxanthin Storage for one month (%) ([3]; β cryptoxanthin 0.0072 parts by mass (concentrated liquid) in water): 100.8% | Residual ratio of β cryptoxanthin Storage for two months (%) [4, 5]: 62.5% | Residual ratio of β cryptoxanthin Storage for two months (%) [4, 6]: 75.5% | Residual ratio of β cryptoxanthin Storage for two months (%) [4, 7]: 92.0% | Residual ratio of β cryptoxanthin Storage for two months (%) [4, 8]: 100% | Residual ratio of β cryptoxanthin Storage for two months (%) [4, 9]: 31.9%
